Where “and” joins values, the source holds several entries; their conditions need not be identical. Identical values can stand only once.
System: Scenedesmus obliquus green algae
Assay: Synergism test of hops extract/biocide combinations (Kull Synergism Index), chlorophyll OD 650 nm endpoint
Type: cell-based
Description: The accepted method used to determined synergism is described by Kull, F. C., Eisman, P. C., Sylwestrowicz, H. D., and Mayer, R. L. in Applied Microbiology 9:538-541 (1961), and is well known in the art.
The equation for determining synergism is as follows:
QaQA+Qb/QB=Synergism Index (SI)
Where QA and QB are the concentrations of compounds A or B that produce an endpoint when acting alone, and where Qa and Qb are the concentrations of compounds A or B acting in the A/B combination required to produce an endpoint. The endpoint is defined by the particular test method, for example, an optical density.
To determine synergism, one evaluates the Synergism Index (SI).
The efficacy of the invention was tested in the following manner:
Scenedesmus obliquus green algae cells were prepared in synthetic cooling water (pH 8.2) to a concentration of 10^7 CFU/ml. 100 ul of the algae suspension were added to 200 ul aliquots of hops extract antimicrobial compositions in synthetic cooling water contained in 96 well microplates (FALCON® 3075). A wide range of hops extract/biocide combinations were tested. Microplates were covered with the provided lid and incubated at 25° C. for six days with 16 hour/8 hour light/dark cycles (cool-white fluorescent lamps, 1255 lux). Following incubation, supernatant was removed from each microplate well by vacuum aspiration. […] 200 ul of dimethylsulfoxide (DMSO) were added to each microplate well to dissolve the algae cells and extract chlorophyll. The optical density at 650 nm of each extraction was determined using a plate reader (Beckman Biomek®).
A wide range of ratios of the two active ingredients can be used, depending on several factors including the microorganisms to be controlled. In this example, data designated as QA and Qa in each case are for hops extract and data designated as QB and Qb are for the other antimicrobial (IZN, POLYQUAT, GLUT, TBTZ, DCOI, THPS, BNEF, DBNPA, and DTEA).

[1] = with hops extract 8 ppm, Endpoint OD650 = 0.300
[2] = with hops extract 16 ppm, Endpoint OD650 = 0.300

O=[N+]([O-])C(Br)=Cc1ccco1 [BNEF, 2-(2-bromo-2-nitroethenyl)furan]
QB (concentration of the antimicrobial that produces the endpoint when acting alone) (Endpoint OD650 = 0.300, (32) used for synergy calculations): >16 (32) ppm | Qb (concentration of the antimicrobial in the combination required to produce the endpoint) (with hops extract 4 ppm, Endpoint OD650 = 0.300): 16 ppm | Qb (concentration of the antimicrobial in the combination required to produce the endpoint) [1]: 16 ppm | Qb (concentration of the antimicrobial in the combination required to produce the endpoint) [2]: 1 ppm

N#CC(Br)(Br)C(N)=O [DBNPA, 2,2-dibromo-3-nitrilopropionamide]
QB (concentration of the antimicrobial that produces the endpoint when acting alone) (Endpoint OD650 = 0.200, (32) used for synergy calculations): >16 (32) ppm | Qb (concentration of the antimicrobial in the combination required to produce the endpoint) (with hops extract 4 ppm, Endpoint OD650 = 0.200): 16 ppm | Qb (concentration of the antimicrobial in the combination required to produce the endpoint) (with hops extract 16 ppm, Endpoint OD650 = 0.200): 16 ppm

CCCCCCCCn1sc(Cl)c(Cl)c1=O [DCOI, 4,5-dichloro-2-n-octyl-4-isothiazolin-3-one]
QB (concentration of the antimicrobial that produces the endpoint when acting alone) (Endpoint OD650 = 0.150, (32) used for synergy calculations): >16 (32) ppm | Qb (concentration of the antimicrobial in the combination required to produce the endpoint) (with hops extract 4 ppm, Endpoint OD650 = 0.150): 16 ppm | Qb (concentration of the antimicrobial in the combination required to produce the endpoint) (with hops extract 64 ppm, Endpoint OD650 = 0.150): 8 ppm and 16 ppm

CCCCCCCCCCSCCN [DTEA, 2-(decylthio)ethanamine]
QB (concentration of the antimicrobial that produces the endpoint when acting alone) (Endpoint OD650 = 0.300): 16 ppm | Qb (concentration of the antimicrobial in the combination required to produce the endpoint) [1]: 4 ppm and 8 ppm | Qb (concentration of the antimicrobial in the combination required to produce the endpoint) [2]: 1 ppm and 2 ppm

O=CCCCC=O [GLUT, glutaraldehyde]
QB (concentration of the antimicrobial that produces the endpoint when acting alone) (Endpoint OD650 = 0.250, (32) used for synergy calculations): >16 (32) ppm | Qb (concentration of the antimicrobial in the combination required to produce the endpoint) (with hops extract 16 ppm, Endpoint OD650 = 0.250): 4 ppm

CCNc1nc(Cl)nc(NC(C)(C)C)n1 [TBTZ, 2-(tert-butylamino)-4-chloro-6(ethylamino)-s-triazine]
QB (concentration of the antimicrobial that produces the endpoint when acting alone) (Endpoint OD650 = 0.250): 16 ppm

methylchloro/isothiazolone [IZN]
QB (concentration of the antimicrobial that produces the endpoint when acting alone) (Endpoint OD650 = 0.100, (32) used for synergy calculations): >16 (32) ppm | Qb (concentration of the antimicrobial in the combination required to produce the endpoint) (with hops extract 16 ppm, Endpoint OD650 = 0.100): 16 ppm | Qb (concentration of the antimicrobial in the combination required to produce the endpoint) (with hops extract 32 ppm, Endpoint OD650 = 0.100): 16 ppm | Qb (concentration of the antimicrobial in the combination required to produce the endpoint) (with hops extract 64 ppm, Endpoint OD650 = 0.100): 8 ppm and 16 ppm | Qb (concentration of the antimicrobial in the combination required to produce the endpoint) (with hops extract 128 ppm, Endpoint OD650 = 0.100): 8 ppm and 16 ppm | Qb (concentration of the antimicrobial in the combination required to produce the endpoint) (with hops extract 256 ppm, Endpoint OD650 = 0.100): 8 ppm

tetrakishydroxymethyl phosphonium sulfate [THPS]
QB (concentration of the antimicrobial that produces the endpoint when acting alone) (Endpoint OD650 = 0.250): 16 ppm | Qb (concentration of the antimicrobial in the combination required to produce the endpoint) (with hops extract 4 ppm, Endpoint OD650 = 0.250): 4 ppm | Qb (concentration of the antimicrobial in the combination required to produce the endpoint) (with hops extract 8 ppm, Endpoint OD650 = 0.250): 4 ppm and 8 ppm

From patent US6379720B1, “Compositions containing hops extract and their use in water systems and process streams to control biological fouling” (Nalco Chemical Company, priority 2000, dated 2002)
